According to patent publication US20150031572A1, “MEANS AND METHODS FOR ASSESSING NEURONAL TOXICITY” (priority 2012, published 2015):

Experiments:
[1] = rats exposed to sulcotrione; cited from earlier work
[2] = Plasma metabolite profiling (GC-MS, LC-MS, SPE-LC-MS) of rats dosed once daily over 28 days; treatment ratios versus untreated control; format: in vivo, rat; conditions: male rats; for 5-Oxoproline, plasma metabolite ratio versus control / Alanine, plasma metabolite ratio versus control / Arginine (second line of the table), plasma metabolite ratio versus control / Arginine, plasma metabolite ratio versus control / Citrulline, plasma metabolite ratio versus control / Glutamine, plasma metabolite ratio versus control / Proline, plasma metabolite ratio versus control / Tyrosine, plasma metabolite ratio versus control: high dose; for Creatinine, ratio versus control: plasma, Table 12a
Procedure, shortened: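 Male and female rats (5/sex/group) dosed once daily for 28 days; fasted anaesthetized animals bled retro-orbitally (EDTA plasma) on days 7, 14, 28, stored −80 °C under N2. Polar and lipid fractions profiled by GC-MS (derivatized), LC-MS/MRM; steroids by online SPE-LC-MS. Pool-normalized data; treatment ratios vs sex-matched controls, Welch test p-values.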

CS(=O)(=O)c1ccc(C(=O)C2C(=O)CCCC2=O)c(Cl)c1 [sulcotrione]
corneal lesions [1]: corneal lesions that varied in severity from partial or hazy opacity to complete opacity

Lead acetate trihydrate
5-Oxoproline, plasma metabolite ratio versus control ([2]; day 7 (m7)): 0.88 | Alanine, plasma metabolite ratio versus control ([2]; day 7 (m7)): 0.68 | Arginine (second line of the table), plasma metabolite ratio versus control ([2]; day 7 (m7)): 0.91 | Arginine, plasma metabolite ratio versus control ([2]; day 7 (m7)): 0.86 | Citrulline, plasma metabolite ratio versus control ([2]; day 7 (m7)): 0.94 | Glutamine, plasma metabolite ratio versus control ([2]; day 7 (m7)): 0.83 | Proline, plasma metabolite ratio versus control ([2]; day 7 (m7)): 0.88 | Tyrosine, plasma metabolite ratio versus control ([2]; day 7 (m7)): 0.92 | 5-Oxoproline, plasma metabolite ratio versus control ([2]; day 14 (m14)): 0.92 | Alanine, plasma metabolite ratio versus control ([2]; day 14 (m14)): 0.75 | Arginine (second line of the table), plasma metabolite ratio versus control ([2]; day 14 (m14)): 0.90 | Arginine, plasma metabolite ratio versus control ([2]; day 14 (m14)): 0.87 | Citrulline, plasma metabolite ratio versus control ([2]; day 14 (m14)): 0.90 | Glutamine, plasma metabolite ratio versus control ([2]; day 14 (m14)): 0.83 | Proline, plasma metabolite ratio versus control ([2]; day 14 (m14)): 0.84 | Tyrosine, plasma metabolite ratio versus control ([2]; day 14 (m14)): 0.88 | 5-Oxoproline, plasma metabolite ratio versus control ([2]; day 28 (m28)): 0.86 | Alanine, plasma metabolite ratio versus control ([2]; day 28 (m28)): 0.75 | Arginine (second line of the table), plasma metabolite ratio versus control ([2]; day 28 (m28)): 0.89 | Arginine, plasma metabolite ratio versus control ([2]; day 28 (m28)): 0.90 | Citrulline, plasma metabolite ratio versus control ([2]; day 28 (m28)): 0.91 | Glutamine, plasma metabolite ratio versus control ([2]; day 28 (m28)): 0.87 | Proline, plasma metabolite ratio versus control ([2]; day 28 (m28)): 0.88 | Tyrosine, plasma metabolite ratio versus control ([2]; day 28 (m28)): 0.90 | Creatinine, ratio versus control ([2]; day 7, high dose): 1.16 | Creatinine, ratio versus control ([2]; day 14, high dose): 1.32 | Creatinine, ratio versus control ([2]; day 28, high dose): 1.66
